Test results published in patent publication US20210030867A1, “ADJUVANT COMPOSITION CONTAINING ALUMINUM AND VACCINE COMPOSITION CONTAINING THE SAME” (TERUMO KABUSHIKI KAISHA, priority 2015, published 2021).

Experiments:
[1] = Release test (measurement of leakage; membrane-disruption function); details: for pH 5.0 Leakage (%) Lb5.0 Amphipathic substance alone / pH 7.4 Leakage (%) Lb7.4 Amphipathic substance alone: labelled amphipathic substance alone; for pH 5.0 Leakage (%) La5.0 pH-sensitive compound alone / pH 7.4 Leakage (%) La7.4 pH-sensitive compound alone: labelled pH-sensitive compound alone
Description: The term “membrane-disruption function” means a function to bring about release in the release test. The release test described herein is a test consisting of the steps of adding liposomes (dispersion) embracing an aqueous solution containing a quenching substance and a fluorescent substance and a dispersion of an evaluation sample to a properly pH-adjusted aqueous solution, incubating the resulting aqueous solution at 37° C. for 90 minutes or 30 minutes, and measuring the intensity of fluorescence of the incubated aqueous solution. This method makes it possible to measure the amount of the fluorescent substance which has been released from the liposomes, and to confirm the membrane-disruption function of the pH-sensitive carrier. Note that the release test will be described in more detail in the Examples to be described later.
The leakage was evaluated according to the method described in K. Kono et al., Bioconjugate Chem. 2008 19 1040-1048. The evaluation was performed using EYPC liposomes which contain Pyranine as a fluorescent substance and DPX as a quencher.
3,000 nmol of EYPC dissolved in chloroform was measured and placed in a 10-mL eggplant-shaped flask, and the EYPC was made into thin film by means of a rotary evaporator. To the flask was added 500 μL of a Pyranine solution (Pyranine: 35 mM, DPX: 50 mM, MES: 25 mM, pH 7.4), followed by dispersion using an ultrasonic irradiator (USC-J), and then the resulting dispersion was passed through a polycarbonate film having a pore diameter of 100 nm by use of an extruder, so as to make the particle diameter uniform. The resulting dispersion underwent substitution of the outer aqueous layer using MES Buffer and G100 column, to obtain a dispersion of EYPC liposomes embracing the fluorescent substance. The concentration of the phospholipid was determined using phospholipid C-test Wako, and it was adjusted with MES Buffer so that phospholipid became 1.0 mmol/L.
20 μL of the dispersion of EYPC liposomes adjusted in concentration and 20 μL of an evaluation sample dispersion were added to 2960 μL of pH-adjusted MES Buffer, and the resulting mixture was subjected to incubation at 37° C. for 90 or 30 minutes (Values resulting from incubation for 90 minutes are adopted in Examples, unless otherwise specified.). Fluorescence at Ex461 nm and Em512 nm was observed by use of a spectrophotometer FP-6500 to monitor the leakage.
Note that the leakage was calculated assuming that the value in the case of using the dispersion alone of EYPC liposomes is 0% and the value in the case of adding 30 μL of 10-fold diluted Triton-X100 is 100%. Specifically, the leakage was calculated according to the following formula. Note that in the following formula, L represents the intensity of fluorescence measured, L0 represents the intensity of fluorescence of only the dispersion of EYPC liposomes embracing the fluorescent substance, and L100 represents the intensity of fluorescence in the case of adding Triton-X100.
First, the influence on the effect of promoting the membrane-disruption function was examined. […] After incubating the evaluation samples overnight, part (20 μL) of each evaluation sample was put to a release test. The release test was conducted according to the above-described release test.

[2] = system: cell-mediated immunity (CTL); assay: Induction of cell-mediated immunity (CTL) in immunized mice, IFNγ ELIspot method on spleen cells; format: in vivo, C57BL/6N mouse
Description: Administration was performed under anesthesia. In the case of subcutaneous administration, it is carried out by subcutaneous injection, 100 μL/head, at one position on the back. […] As for the pH-sensitive carrier, a fundamental dose concentration for the amphipathic substance was 100 nmol/head, that for the pH-sensitive compound was 10 to 640 nmol/head, and part thereof was administered in diluted conditions. As the antigen, OVA protein or OVA peptide was used, the dose being 80 μg/head. […] In the case of evaluating cell-mediated immunity, administration was performed once and assay was conducted seven days after the administration.
The mouse was euthanized on the seventh day after the last administration and had its spleen extracted. After addition of 3.0 mL of RPMI medium containing 10% serum, the spleen was treated by the BD Falcon cell strainer, to obtain a suspension of cells. The cells were subjected to hemolysis with RBC lysis buffer, followed by washing with RPMI medium containing 10% serum. The cells were dispersed into RPMI medium containing 10% serum, after which the number of cells was counted, and a dispersion of spleen cells was obtained.
The ELIspot method was carried out by using the Mouse IFNγ ELISPOT Set. One day before cell inoculation, the 96-well ELispot plate was allowed to adsorb the detection antibody attached to the kit, to make the plate. The thus made plate was washed with RPMI medium containing 10% serum, after which 200 μL of 10% serum-containing RPMI medium was added thereto, and the plate was left to stand at 37° C. for two hours for blocking. The plate was washed with 10% serum-containing RPMI medium. In the case where the antigen undergoes restimulation, 100 μL of 10% serum-containing RPMI medium containing 40 μg/mL of OVA peptide was added to the plate. […]
The candidate substances were all used in an amount of 10 μg per mouse, and OVA protein was used as the antigen in an amount of 80 μg per mouse. […] Induction of cell-mediated immunity was evaluated according to the ELispot method described hereinabove. […]

[3] = subcutaneous, once, assay after seven days, candidate substance/alum 10 μg, OVA protein 80 μg per mouse, carrier where used 100 nmol DLPC + 160 nmol deoxycholic acid, restimulation with OVA peptide

| Molecule | pH 5.0 Leakage (%) Lb5.0 Amphipathic substance alone ([1]; pH 5.0) [%] | pH 7.4 Leakage (%) Lb7.4 Amphipathic substance alone [1] [%] | further results |
| --- | --- | --- | --- |
| Cc1c(C)c2c(c(C)c1O)CCC(C)(CCCC(C)CCCC(C)CCCC(C)C)O2 (racemic) [Tocopherol, DL-α-tocopherol] | 1.2 | 1.7 | induction of cell-mediated immunity (spot formation, ELIspot) ([2]; mouse, in vivo, sc): did not induce cell-mediated immunity |
| CC(=O)Oc1c(C)c(C)c2c(c1C)CCC(C)(CCC[C@H](C)CCC[C@H](C)CCCC(C)C)O2 (mixture of isomers) [tocopherol acetate, DL-α-tocopherol acetate, reference compound] |  |  | induction of cell-mediated immunity (spot formation, ELIspot) [2, 3]: did not induce cell-mediated immunity |
| C[C@H](CCC(=O)O)[C@H]1CC[C@H]2[C@@H]3[C@H](O)C[C@@H]4C[C@H](O)CC[C@]4(C)[C@H]3CC[C@]12C [Chenodeoxycholic acid] |  |  | pH 5.0 Leakage (%) La5.0 pH-sensitive compound alone ([1]; pH 5.0): 3.1%; pH 7.4 Leakage (%) La7.4 pH-sensitive compound alone [1]: 1.1% |
| CCCCCCCCCC(=O)OC[C@H](COP(=O)([O-])OCC[N+](C)(C)C)OC(=O)CCCCCCCCC [DDPC, 1,2-didecanoyl-sn-glycero-3-phosphatidylcholine] | 10.1 | 8.4 |  |
| CCCCCCCCCCCC(=O)OC[C@H](COP(=O)([O-])OCC[N+](C)(C)C)OC(=O)CCCCCCCCCCC [DLPC, 1,2-dilauroyl-sn-glycero-3-phosphatidylcholine] |  |  | pH 5.0 Leakage (%) Lb5.0 Amphipathic substance (DLPC) alone ([1]; pH 5.0, DLPC alone): 1.9% |
| CCCCCCCCCCCCCCCCCC(=O)OCC(CO)OC(=O)CCCCCCCCCCCCCCCCC (centres unmarked) [Glycerol distearate, glycerol distearate] | 4.0 | 0.3 |  |
| CCCCCCCC/C=C\CCCCCCCC(=O)OCC(O)CO (centres unmarked) [Glycerol monooleate, glycerol monooleate] | 6.0 | 4.1 |  |
| CC(CCC(=O)NCC(=O)O)C1CCC2C3CCC4CC(O)CCC4(C)C3CC(O)C12C (centres unmarked) [Glycodeoxycholic acid] |  |  | pH 5.0 Leakage (%) La5.0 pH-sensitive compound alone ([1]; pH 5.0): 5.9%; pH 7.4 Leakage (%) La7.4 pH-sensitive compound alone [1]: 1.6% |
| CC1(C)[C@@H](O[C@H]2O[C@H](C(=O)O)[C@@H](O)[C@H](O)[C@H]2O[C@@H]2O[C@H](C(=O)O)[C@@H](O)[C@H](O)[C@H]2O)CC[C@]2(C)[C@H]3C(=O)C=C4[C@@H]5C[C@@](C)(C(=O)O)CC[C@]5(C)CC[C@@]4(C)[C@]3(C)CC[C@@H]12 [Glycyrrhizinic acid] | 4.0 | 0.3 | pH 5.0 Leakage (%) La5.0 pH-sensitive compound alone ([1]; pH 5.0): 3.0%; pH 7.4 Leakage (%) La7.4 pH-sensitive compound alone [1]: 0.8% |
| C[C@H](CCC(=O)O)[C@H]1CC[C@H]2[C@@H]3C[C@H](O)[C@@H]4C[C@H](O)CC[C@]4(C)[C@H]3CC[C@]12C [Hyodeoxycholic acid] |  |  | pH 5.0 Leakage (%) La5.0 pH-sensitive compound alone ([1]; pH 5.0): 2.8%; pH 7.4 Leakage (%) La7.4 pH-sensitive compound alone [1]: 0.6% |
| CCCCCCCCCCCC(=O)OCC(O)COC(=O)CCCCCCCCCCC [α,α′-dilaurin] | 0.8 | 1.0 |  |
| Polyoxyethylene 10 castor oil [Peg (10) castor oil] | 6.2 | 3.4 |  |
| polyoxyethylene sorbitan monolauric acid ester [Tween 20] | 48.8 | 50.4 |  |
| polyoxyethylene sorbitan monooleic acid ester [Tween 80] | 1.6 | 0.6 |  |
| polyoxyethylene sorbitan monopalmitic acid ester [Tween 40] | 11.5 | 8.3 |  |
| polyoxyethylene sorbitan monostearic acid ester [Tween 60] | 6.7 | 3.8 |  |
| sorbitan monooleate [Span80] | 7.3 | 4.4 |  |
| sorbitan palimitic acid ester [Span40] | 1.6 | 0.6 |  |
| sorbitan stearic acid ester [Span60] | 4.3 | 1.6 |  |
| sorbitan trioleic acid ester [Span85] | 2.0 | 1.8 |  |
| sorbitan tristearic acid ester [Span65] | 4.2 | 1.5 |  |
| antigen alone: OVA protein (Ovalbumin, low endotoxin) administered alone as comparative sample (protein, UniProt P01012 2-386, looked up, low endotoxin) Ovalbumin: GSIGAASMEFCFDVFKELKVHHANENIFYCPIAIMSALAMVYLGAKDSTRTQINKVVRFDKLPGFGDSIEAQCGTSVNVHSSLRDILNQITKPNDVYSFSLASRLYAEERYPILPEYLQCVKELYRGGLEPINFQTAADQARELINSWVESQTNGIIRNVLQPSSVDSQTAMVLVNAIVFKGLWEKAFKDEDTQAMPFRVTEQESKPVQMMYQIGLFRVASMASEKMKILELPFASGTMSMLVLLPDEVSGLEQLESIINFEKLTEWTSSNVMEERKIKVYLPRMKMEEKYNLTSVLMAMGITDVFSSSANLSGISSAESLKISQAVHAAHAEINEAGREVVGSAEAGVDAASVSEEFRADHPFLFCIKHIATNAVLFFGRCVSP |  |  | induction of cell-mediated immunity (spot formation, ELIspot) [2, 3]: did not induce cell-mediated immunity |
